Molecules are shown by their SMILES. Where two headings read alike, the source gives them in different places.

The source of these data is paper PMC5669010 (AIDS Research and Therapy, 2017).

The conditions of series [1]: cited from earlier work.
Series [2] has as its system wild-type (non-protease inhibitor-resistant) virus. The note with it: cited from earlier work.
The nature of another series: clinical. The note with it: human, in vivo, Elvitegravir Ctrough,ss, individual patients.
The conditions of series [3]: human, in vivo, 24 h.
Protocol: (§1) Plasma samples were frozen and stored at – 80 °C until analysis.
(§2) Addition of elvitegravir and cobicistat to the method was partly validated, including selectivity, linearity, accuracy and recovery, inter- and intra-run repeatability, and stability.
(§3) Elvitegravir and cobicistat concentrations were compared to historical controls.
[4] abbreviates: 60 subjects, darunavir 800 mg/cobicistat 150 mg with two NRTIs.
Where [5] appears, read: population PK data for E/C/F/TDF, n = 419.

Protocol for clinical: as §1, §2, §3

Take `CC(C)c1nc(CN(C)C(=O)N[C@@H](CCN2CCOCC2)C(=O)N[C@H](CC[C@H](Cc2ccccc2)NC(=O)OCc2cncs2)Cc2ccccc2)cs1` [cobicistat]: the “Cobicistat 24-h level, mean” value in series [1] (59 HIV-infected patients, darunavir/cobicistat with emtricitabine and tenofovir DF) is reported as 33 ng/mL. Further, in series [1] (setting [4]), the “Cobicistat C0h, mean” value is 76 ng/mL; the “Cobicistat Cmax, mean” value is listed as 991 ng/mL; the “Cobicistat tmax, median” value is reported as 3.5 h. Besides, in series [1] (patients taking E/C/F/TDF with darunavir), the “Cobicistat 24-h concentration, mean” value is 20.2 ng/mL.

For the molecule `CC(C)OC(=O)[C@H](C)N[P@](=O)(CO[C@H](C)Cn1cnc2c(N)ncnc21)Oc1ccccc1` [TAF, tenofovir alafenamide], the “Plasma concentrations of TAF” value in series [1] (PK substudy of E/C/F/TAF plus darunavir switch study) was “at the lower end of the efficacious range”.

`CC(C)CN(C[C@@H](O)[C@H](Cc1ccccc1)NC(=O)O[C@H]1CO[C@H]2OCC[C@H]21)S(=O)(=O)c1ccc(N)cc1` [darunavir]: in series [1] (setting [4]), the “Darunavir Cmax, mean” value is listed as 7663 ng/mL and the “Darunavir tmax, median” value is 3.5 h. In addition, the “Half maximal effective concentration (EC50)” value in series [2] (wild-type (non-protease inhibitor-resistant) virus) is 0.055 µg/mL. Moreover, the “Protein-adjusted 50% inhibitory concentration (IC50)” value in series [2] (wild-type virus) was 0.055 µg/mL.

Turning to `COC(=O)N[C@H](C(=O)N[C@@H](Cc1ccccc1)[C@@H](O)CN(Cc1ccc(-c2ccccn2)cc1)NC(=O)[C@@H](NC(=O)OC)C(C)(C)C)C(C)(C)C` [atazanavir], the “Effect of coadministration with elvitegravir/cobicistat on atazanavir trough levels” value in series [1] (human, in vivo) is “significant lowering of atazanavir trough levels”.

For `COc1cc2c(cc1Cc1cccc(Cl)c1F)c(=O)c(C(=O)O)cn2[C@H](CO)C(C)C` [elvitegravir], the “Elvitegravir Ctrough,ss, mean” value is reported as 464 ng/mL in series [1] (E/C/F/TAF + DRV, N 15); 234 ng/mL in series [1] (E/C/F/TDF + DRV, N 24); 250 ng/mL in series [1] (E/C/F/TDF without darunavir, N 32); 451 ng/mL in series [1] (E/C/F/TDF without darunavir, N 419, population pharmacokinetic estimate). The “Elvitegravir Cmax, mean” value in series [1] (setting [5]) was 1731 ng/mL. Also, the Elvitegravir tmax in series [1] (setting [5]) was 4.0 h. The concentration at 24 h in “clinical” was less than 80 ng/mL. For the same molecule, in series [2] (wild type virus), the “Protein-adjusted 95% inhibitory concentration (IC95)” value was 0.045 µg/mL. The “Elvitegravir Ctrough,ss relative to protein-adjusted IC95 (45 ng/mL)” value in series [3] is on record as “more than 2 fold”. Also, the “Elvitegravir Ctrough,ss, individual patients” value in series [3] is reported as 82 ng/mL.
